Reference: patent US9597310B2, “Indanyloxydihydrobenzofuranylacetic acids” (Boehringer Ingelheim International GmbH, priority 2012, dated 2017)

Assays:
[1] = Chemical stability (degradation kinetics) in acidic aqueous media, HPLC recovery rate; type: physicochemical; details: pH value of ca. 1.2, acetonitrile/0.1 M aqueous HCl (2:3), 37° C.
Procedure: Degradation kinetics is used to simulate chemical stability of compounds in the acidic part of the gastro intestinal tract.
The chemical stability of the compounds of the invention at pH value of ca. 1.2 is determined as follows:
Compound is dissolved in an HPLC vial either in a mixture of acetonitrile/0.1 M aqueous HCl (2:3; pH ca. 1.2) or in a mixture of acetonitrile/McIlvaine buffer pH 7.4 (2:3) to get a concentration of approximately 0.25 mg/ml. The vial was then transferred into an HPLC autosampler system and maintained at a temperature of 37° C. A first sample is taken and injected immediately into a standard HPLC system with a UV DAD detector. Further samples are injected after 2, 4, 6, 8 and 10 hours. Degradation of the compound is measured by determining the recovery rate of compound [%] for each injection using an HPLC standard gradient method. Therefore the peak area of the main peak for the first injection (AUt0) is determined and set as 100%. Peak area of the main peak is determined also for the further injections (AUtn, n=2, 4, 6, 8, 10) and expressed as fraction of […] [%].

[2] = molecular target: human GPR40 receptor (Homo sapiens (Human), UniProt O14842); assay: IP1 accumulation measurements using the IPOne assay system; type: cell-based; details: 1321N1 cells stably expressing human GPR40 receptor, 1 h stimulation
human GPR40 receptor, sequence (O14842 whole entry): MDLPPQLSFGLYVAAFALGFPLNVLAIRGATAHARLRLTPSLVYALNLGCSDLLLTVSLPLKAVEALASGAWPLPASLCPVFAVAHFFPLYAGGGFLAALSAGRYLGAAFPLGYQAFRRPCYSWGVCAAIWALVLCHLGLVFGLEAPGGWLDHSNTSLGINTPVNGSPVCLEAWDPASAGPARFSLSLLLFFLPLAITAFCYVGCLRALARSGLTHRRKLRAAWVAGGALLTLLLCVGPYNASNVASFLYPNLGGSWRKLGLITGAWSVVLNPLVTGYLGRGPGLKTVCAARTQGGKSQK
Procedure: IP1 accumulation measurements using the IPOne assay system—1321N1 cells stably expressing human GPR40 receptor (Euroscreen, Belgium) are seeded 24 h before the assay in white 384-well plates in culture medium containing 10% FCS, 1% Na-Pyruvate and 400 μg/mL G418. IP1 is assayed according to the manufacturer's description (Cisbio Bioassays, France). In brief, the assay is started by substitution of the culture medium by stimulation buffer (Hepes 10 mM, CaCl2 1 mM, MgCl2 0.5 mM, KCl 4.2 mM, NaCl 146 mM, glucose 5.5 mM and LiCl 50 mM, pH 7.4). Cells are stimulated for 1 h at 37° C., 5% CO2 by addition of the compounds that are diluted in stimulation buffer containing LiCl. Assays are stopped by adding HTRF-conjugates (IP1-d2 and Anti-IP1 cryptate Tb) and lysis buffer, provided by the manufacturer. After an incubation time of 1 h at room temperature plates are measured using an EnVision™, Perkin Elmer. The obtained fluorescence ratios at 665/615 […] are then used to calculate the pEC50 values using Assay Explorer 3.3 Software (Accelrys, Inc.) by interpolation using an IP1 reference curve and subsequent sigmoidal curve fitting allowing for a variable hill slope.

Row | SMILES | Recovery rate after 2 h [1] [%] | EC50 [2] [nM]
1 | CC(C)(O)COc1ccc(Oc2ccc(F)c3c2CC[C@H]3Oc2ccc3c(c2)OC[C@H]3CC(=O)O)cc1 [Example 3, [(S)-6-{(R)-7-Fluoro-4-[4-(2-hydroxy-2-methyl-propoxy)-phenoxy]-indan-1-yloxy}-2,3-dihydro-benzofuran-3-yl]-acetic acid] | 97.5 | 13
2 | COCCOc1ccc(Oc2ccc(F)c3c2CC[C@H]3Oc2ccc3c(c2)OC[C@H]3CC(=O)O)cc1 [Example 1, [(S)-6-{(R)-7-Fluoro-4-[4-(2-methoxy-ethoxy)-phenoxy]-indan-1-yloxy}-2,3-dihydro-benzofuran-3-yl]-acetic acid] | 97.5 | 7
3 | O=C(O)C[C@@H]1COc2cc(O[C@@H]3CCc4c(Oc5ccc(C(=O)N6CCCC6)cc5)ccc(F)c43)ccc21 [Example 9, [(S)-6-{(R)-7-Fluoro-4-[4-(pyrrolidine-1-carbonyl)-phenoxy]-indan-1-yloxy}-2,3-dihydro-benzofuran-3-yl]-acetic acid] | >99 | 18
4 | CC(C)c1cccc2c1CC[C@H]2Oc1ccc2c(c1)OC[C@H]2CC(=O)O [XXI, reference compound] | <5 | 
5 | O=C(O)C[C@@H]1COc2cc(OC3CCc4ccccc43)ccc21 (stereo partly drawn) [XX, reference compound] | <5 | 
6 | CCNC(=O)c1ccc(Oc2ccc(F)c3c2CC[C@H]3Oc2ccc3c(c2)OC[C@H]3CC(=O)O)cc1 [Example 12, {(S)-6-[(R)-4-(4-Ethylcarbamoyl-phenoxy)-7-fluoro-indan-1-yloxy]-2,3-dihydro-benzofuran-3-yl}-acetic acid] | >99 | 18
7 | O=C(O)C[C@@H]1COc2cc(O[C@@H]3CCc4c(Oc5ccc6c(c5)CCO6)ccc(F)c43)ccc21 [Example 11, {(S)-6-[(R)-4-(2,3-Dihydro-benzofuran-5-yloxy)-7-fluoro-indan-1-yloxy]-2,3-dihydro-benzofuran-3-yl}-acetic acid] | 96.5 | 6
8 | CC(C)(O)CCOc1ccc(Oc2ccc(F)c3c2CC[C@H]3Oc2ccc3c(c2)OC[C@H]3CC(=O)O)cc1 [Example 2, [(S)-6-{(R)-7-Fluoro-4-[4-(3-hydroxy-3-methyl-butoxy)-phenoxy]-indan-1-yloxy}-2,3-dihydro-benzofuran-3-yl]-acetic acid] | >98 | 5
9 | CC(=O)Nc1cccc(Oc2ccc(F)c3c2CC[C@H]3Oc2ccc3c(c2)OC[C@H]3CC(=O)O)c1 [Example 6, {(S)-6-[(R)-4-(3-Acetylamino-phenoxy)-7-fluoro-indan-1-yloxy]-2,3-dihydro-benzofuran-3-yl}-acetic acid] | >98 | 8
10 | Cc1nc(-c2ccc(Oc3ccc(F)c4c3CC[C@H]4Oc3ccc4c(c3)OC[C@H]4CC(=O)O)cc2)cs1 [Example 32, ((S)-6-{(R)-7-Fluoro-4-[4-(2-methylthiazol-4-yl)phenoxy]-indan-1-yloxy}-2,3-dihydrobenzofuran-3-yl)-acetic acid] |  | 13
11 | CC(=O)Nc1ccc(Oc2ccc(F)c3c2CC[C@H]3Oc2ccc3c(c2)OC[C@H]3CC(=O)O)cc1 [Example 8, {(S)-6-[(R)-4-(4-Acetylamino-phenoxy)-7-fluoro-indan-1-yloxy]-2,3-dihydro-benzofuran-3-yl}-acetic acid] |  | 34
